What was measured:
[1] = biological target: T1, Nitric oxide synthase, inducible (Mus musculus, UniProt P29477); test: Compound was tested for inhibition of inducible Nitric oxide synthase in activated murine macrophages.
T1 sequence (P29477 whole entry): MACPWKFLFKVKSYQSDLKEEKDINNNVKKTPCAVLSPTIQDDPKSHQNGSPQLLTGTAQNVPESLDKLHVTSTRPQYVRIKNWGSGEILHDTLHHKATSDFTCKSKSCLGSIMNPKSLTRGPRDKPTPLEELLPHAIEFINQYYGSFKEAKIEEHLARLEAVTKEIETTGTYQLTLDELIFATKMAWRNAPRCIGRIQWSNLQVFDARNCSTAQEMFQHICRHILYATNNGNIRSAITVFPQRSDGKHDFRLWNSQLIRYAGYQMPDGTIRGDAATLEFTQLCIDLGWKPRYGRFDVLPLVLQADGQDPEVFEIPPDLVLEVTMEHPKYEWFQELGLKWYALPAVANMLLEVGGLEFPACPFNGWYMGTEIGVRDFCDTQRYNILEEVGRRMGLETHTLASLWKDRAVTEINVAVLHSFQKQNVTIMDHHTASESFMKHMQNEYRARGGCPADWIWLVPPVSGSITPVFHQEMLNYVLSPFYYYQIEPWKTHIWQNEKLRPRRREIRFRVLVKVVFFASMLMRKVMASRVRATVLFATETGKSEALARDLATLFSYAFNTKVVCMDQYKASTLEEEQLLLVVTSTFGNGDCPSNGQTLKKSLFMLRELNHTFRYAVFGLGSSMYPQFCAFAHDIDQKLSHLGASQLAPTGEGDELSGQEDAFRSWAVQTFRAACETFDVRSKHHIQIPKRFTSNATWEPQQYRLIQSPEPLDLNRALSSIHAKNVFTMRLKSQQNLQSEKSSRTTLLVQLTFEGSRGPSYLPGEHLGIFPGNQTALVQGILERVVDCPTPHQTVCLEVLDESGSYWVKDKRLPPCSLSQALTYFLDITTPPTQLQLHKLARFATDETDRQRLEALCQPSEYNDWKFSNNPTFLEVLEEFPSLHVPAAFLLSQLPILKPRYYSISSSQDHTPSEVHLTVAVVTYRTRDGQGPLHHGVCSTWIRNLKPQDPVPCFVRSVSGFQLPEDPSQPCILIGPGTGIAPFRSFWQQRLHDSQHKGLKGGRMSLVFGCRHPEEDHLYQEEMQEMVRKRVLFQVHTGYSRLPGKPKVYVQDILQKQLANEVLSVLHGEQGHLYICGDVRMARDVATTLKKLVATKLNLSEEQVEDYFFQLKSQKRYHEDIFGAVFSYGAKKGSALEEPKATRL

[2] = Compound was tested for inhibition of constitutive bovine brain Nitric oxide synthase; format: tissue-based

Row | IC50 [1] | IC50 [2] | SMILES
1 | 50 µM |  | O=c1nnc2ccc3c(c2[nH]1)=CCCC=3
2 | 20 µM | 2.5 µM | O=[N+]([O-])c1ccc2cn[nH]c2c1

Row | SMILES | IC50 [1] | IC50 [2]
3 | c1ccc(-n2ccnc2)cc1 | 8 µM | 
